According to patent EP0309566B1, “STLV-III-RELATED POLYPEPTIDES, DIAGNOSTIC SYSTEMS AND ASSAY METHODS” (JOHNSON AND JOHNSON, priority 1987, dated 1994):

What was measured:
HIV-1 antibodies [1] = test: ELISA of serum panels: E8 assay (peptide (II) as solid phase antigen, Procedure #1) compared with commercial viral lysate kits; format: binding, human; set-up: key: (+)=False Positives; details: 6 samples; NPC/NON-AIDS
Experimental: (§1) • (1) coat ELISA plate with peptide - 1ug/50ul/well in 0.1M NaHCO₃, pH 9; • (2) let plates dry overnight uncovered at 37°C; then wash with PBS; • (3) block plates with 300ul/well of blocking buffer (5% NCS-PBS) for 2 hrs. at 37°C; • (4) shake out blocking buffer and drain well; • (5) add 50ul/well test antiserum (first antibody) for 30 to 120 minutes at 37°C. (If the antiserum is to be diluted, use T-wash.) Dilutions of 1:2 to 1:100 have been used; • (6) shake out test antisera and wash plate six times with PBS-Tween20; • (7) add 100ul/well of labeled specific binding agent in the form of a enzyme-labeled second antibody diluted 1:4000 with T-wash. Maintain 30 to 120 minutes at 37°C; • (8) shake out any unreacted second antibody and wash plate six times with PBS-Tween20; • (9) add 100ul/well OPD substrate (or 5ul ABTS solution) for 20 minutes at RT; • (10) add 50ul/well of 4N H₂SO₄ to stop OPD reaction (or 100ul/well of 1% SDS for ABTS reaction); • (11) read plate on an MR 500 Microplate ELISA plate reader. […]
(§2) The ELISA kits described in Example 4A made with peptide (II) were evaluated against a panel of sera comprising sera from normal subjects, patients with disorders or diseases unrelated to AIDS, known AIDS patients, known ARC patients, and patients whose diagnosis is unknown but who are antibody-positive for […] antibodies by commercial tests or by Western blot assay. […]

HIV-1 antibodies [2] = test: as above; format: binding, human; set-up: key: +: antibody-positive; antibody-negative; details: E8 absorbance cutoff 0.104
Experimental: as §1, with “reader. (490nm for OPD or 405 nm for ABTS).” for “reader.”
as §2

HIV-1 antibodies [3] = test: as above; format: binding, human; set-up: key: (-) = False Negatives
Experimental: as §1, with “reader. (490nm for OPD or 405 nm for ABTS).” for “reader.”
as §2

antibodies to HIV-1 [4] = test: E8 peptide competition (blocking) assay: serum mixed with peptide (II), peptide (II) as solid phase antigen; format: binding, human; details: last seven samples of Table 7 (antibody positive sera)
Experimental: Presented in Table 7 below are data relating to the assay of various patient sera. In addition to the usual assay with peptide (II) as described in Example 4-Procedure A, each serum was assayed against peptide (II) after mixing the serum sample with an effective blocking amount of the peptide (II). Also included in the Table are the results of assaying each sample with commercially available kits.
Furthermore, even samples incorrectly identified as positive by the E8 assay are correctly identified as negative by the E8 peptide competition assay. […] The last seven samples assayed as shown in Table 7 are positive for antibody by both the E8 assay and commercially available assays (with the exception of two false negatives using the Abbott kit) and by the more tedious and time consuming Western blot assay.

HIV-1 antibodies [5] = test: ELISA of serum panels: E8 assay (peptide (II) as solid phase antigen, Procedure #1) compared with commercial viral lysate kits; format: binding, human; details: 200 normal sera; S.D. 0.017
Experimental: as §1, §2

antibodies to HIV-1 [6] = test: ELISA with peptides (III) and (IV), AIDS/ARC patient sera (Procedure 1); format: binding, human
Experimental: (§3) • (1) coat ELISA plate with peptide - 1ug/50ul/well in 0.1M NaHCO₃, pH 9; • (2) let plates dry overnight uncovered at 37°C; then wash with PBS; • (3) block plates with 300ul/well of blocking buffer (5% NCS-PBS) for 2 hrs. at 37°C; • (4) shake out blocking buffer and drain well; • (5) add 50ul/well test antiserum (first antibody) for 30 to 120 minutes at 37°C. (If the antiserum is to be diluted, use T-wash.) Dilutions of 1:2 to 1:100 have been used; • (6) shake out test antisera and wash plate six times with PBS-Tween20; • (7) add 100ul/well of labeled specific binding agent in the form of a enzyme-labeled second antibody diluted 1:4000 with T-wash. Maintain 30 to 120 minutes at 37°C; • (8) shake out any unreacted second antibody and wash plate six times with PBS-Tween20; • (9) add 100ul/well OPD substrate (or 5ul ABTS solution) for 20 minutes at RT; • (10) add 50ul/well of 4N H₂SO₄ to stop OPD reaction (or 100ul/well of 1% SDS for ABTS reaction); • (11) read plate on an MR 500 Microplate ELISA plate reader. (490nm for OPD or 405 nm for ABTS).
Additional AIDS/ARC patient sera were assayed with ELISA assays employing the two highly reactive peptides of formulas (III) and (IV) (Example IV-Procedure 1).

antibodies to HIV-1 [7] = test: Competition ELISA, admixed formula (III) and (IV) peptides as solid phase antigen (Example 4A); format: binding, human
Experimental: as §3
Further evidence that more than one epitope is present in formula (III) and (IV) peptides can be deduced from absorbance values obtained from competition studies, the results of an example of which are shown in Table 11. In this study, admixed formula (III) and (IV) peptides were applied to a microtiter plate as the immobilized, solid phase antigen and an ELISA assay (Example 4A) was performed under five different conditions: without competition, or competition with excess formula (III) peptide, formula (IV) peptide, an admixture of both peptides [(III)+(IV)], or with a heterologous peptide. The competition was performed by adding the appropriate peptide(s) to the diluted serum just before adding the serum sample to the microtiter well.

antibodies to HIV-1 [8] = test: Competition ELISA, formula (I) peptide as solid phase antigen (Example 4A); format: binding, human
Experimental: as §3

antibodies against HIV-2 = test: ELISA with STLV-III polypeptides p80 and p81, alone and in combination; format: binding, human; details: two sera containing high titers of antibodies against HIV-2, diluted 1:10; 490nm
Experimental: Preliminary studies using two sera containing high titers of antibodies against HIV-2 were performed by ELISA using each of p80 and p81 alone and in combination. One hundred microliters (ul) of 0.01M NaHCO₃, pH 9.6, containing 1 microgram (ug) of either p80 or p81 or a combination (admixture) of 1 ug of p80 and 1 ug of p81 were admixed into the wells of Immunolon II microtiter plates (Dynatech, Alexandria, VA). The plates were then maintained for about 16 hours at 4 degrees C to permit the polypeptides to adsorb onto (coat) the walls of the wells. After removing the polypeptide coating solution by shaking, 300 ul of PBS containing 1% bovine serum albumin (BSA), 5mM benzamidine, 10 kilounits Aprotinin, 10ug/ml Trypsin Inhibitor, 10mM EACA, 0.5mM PMSF, 2mM EDTA and 10% glycerol were admixed into each well to block excess protein binding sites. […]
Two hundred ul of OPD substrate were then admixed into each well to form a developing-reaction admixture. After maintaining the developing-reaction admixture for 30 minutes at about 20 degrees C, 50 ul of 4N H₂SO₄ were admixed into each well to stop the developing-reaction, and the resulting solutions were assayed for absorbance at 490nm using a microtiter plate reader.

24 sera = test: Comparison of peptide p80 based and peptide p81 based ELISA, 24 sera; format: binding
Text: The absorbance values obtained for each of 24 sera in a peptide p80 based ELISA were divided by those obtained in a peptide p81 based ELISA. The resulting absorbance value ratios are shown in ranked order in Table 14.

## IWGCSGKLICTTAVP [peptide (II), solid phase antigen of the "E8" assay]
HIV-1 antibodies [1]
  Assay result: (+)
HIV-1 antibodies [2]; 1 sample, Normal, Sample ID 749
  Assay result: -
HIV-1 antibodies [2]; 1 sample, Normal, Sample ID 2846
  Assay result: +
HIV-1 antibodies [2]; 198 samples, Diagnosis Normal
  Assay result: -
HIV-1 antibodies [3]; 1 sample, AIDS, Sample I.D. 653
  Assay result: (-)
HIV-1 antibodies [3]; 2 samples, AIDS, Sample I.D. 533,3621
  Assay result: (-)
HIV-1 antibodies [3]; 2 samples, ARC, Sample I.D. 512,529
  Assay result: (-)
Antibodies to HIV-1 [4]
  reactivity of sera with peptide (II) as solid phase antigen after mixing each serum with peptide (II): effectively blocked
HIV-1 antibodies [5]
  Mean Absorbance of Normals: 0.016

## IWGCSGKLICTTAVPWNAS [peptide (III)]
Antibodies to HIV-1 [6]; serum sample 0509 (group B)
  absorbance values: 0.403
Antibodies to HIV-1 [6]; serum sample 0649 (group A)
  absorbance values: 1.756
Antibodies to HIV-1 [6]; serum sample 0653 (group B)
  absorbance values: 0.111
Antibodies to HIV-1 [6]; serum sample 0662 (group B)
  absorbance values: 0.301
Antibodies to HIV-1 [6]; serum sample 3362 (group A)
  absorbance values: 0.503
Antibodies to HIV-1 [6]; serum sample 3411 (group C)
  absorbance values: >2.00
Antibodies to HIV-1 [6]; serum sample 3412 (group A)
  absorbance values: >2.00
Antibodies to HIV-1 [6]; serum sample 3413 (group C)
  absorbance values: >2.00
Antibodies to HIV-1 [6]; serum sample 3414 (group C)
  absorbance values: 1.453
Antibodies to HIV-1 [6]; serum sample 3416 (group C)
  absorbance values: 1.914
Antibodies to HIV-1 [6]; serum sample 3456 (group C)
  absorbance values: 1.670
Antibodies to HIV-1 [6]; serum sample 3555 (group B)
  absorbance values: 0.428
Antibodies to HIV-1 [6]; serum sample 3575 (group B)
  absorbance values: 0.350
Antibodies to HIV-1 [6]; serum sample 3666 (group C)
  absorbance values: >2.00
Antibodies to HIV-1 [6]; serum sample 3693 (group A)
  absorbance values: 0.559
Antibodies to HIV-1 [6]; serum sample 3722 (group A)
  absorbance values: 0.620
Antibodies to HIV-1 [6]; serum sample 3744 (group B)
  absorbance values: 0.311
Antibodies to HIV-1 [6]; serum sample 3790 (group B)
  absorbance values: 0.224
Antibodies to HIV-1 [7]; sample 3412, unblocked 1.450
  absorbance with competing peptide: 0.113
Antibodies to HIV-1 [7]; sample 3413, unblocked >2.00
  absorbance with competing peptide: 0.381
Antibodies to HIV-1 [7]; sample 3416, unblocked >2.00
  absorbance with competing peptide: 1.811
Antibodies to HIV-1 [7]; sample 3544, unblocked 1.810
  absorbance with competing peptide: 0.876
Antibodies to HIV-1 [7]; sample 3575, unblocked 1.267
  absorbance with competing peptide: 0.982
Antibodies to HIV-1 [7]; sample 3693, unblocked 0.340
  absorbance with competing peptide: 0.103
Antibodies to HIV-1 [7]; sample 3790, unblocked 1.558
  absorbance with competing peptide: 1.320
Antibodies to HIV-1 [8]; result in words
  competition with formula (I) peptide on the plate: competed very effectively
Antibodies to HIV-1 [8]; sample 013, unblocked 1.177
  absorbance with competing peptide: 0.046
Antibodies to HIV-1 [8]; sample 014, unblocked 0.383
  absorbance with competing peptide: 0.067

## CSGKLIC [(I)]
Antibodies to HIV-1 [8]; sample 013, unblocked 1.177
  absorbance with competing peptide: 0.038
Antibodies to HIV-1 [8]; sample 014, unblocked 0.383
  absorbance with competing peptide: 0.050

## AWCAFRQVCHTTVPWPNAS [p81]
Antibodies against HIV-2
  absorbance values: about 0.4
24 sera; Serum No. 3541
  absorbance value: 0.025
24 sera; Serum No. 3616
  absorbance value: 0.047
24 sera; Serum No. 3743
  absorbance value: 0.040
24 sera; Serum No. 3923
  absorbance value: 0.067
24 sera; Serum No. 3942
  absorbance value: 0.051
24 sera; Serum No. 5160
  absorbance value: 0.236
24 sera; Serum No. 5182
  absorbance value: 0.102
24 sera; Serum No. 5727
  absorbance value: 0.563
24 sera; Serum No. 5740
  absorbance value: 0.043
24 sera; Serum No. 6598
  absorbance value: 0.205
24 sera; Serum No. 6599
  absorbance value: 0.232
24 sera; Serum No. 6600
  absorbance value: 0.306
24 sera; Serum No. 6601
  absorbance value: 0.138
24 sera; Serum No. 6602
  absorbance value: 0.001
24 sera; Serum No. 6603
  absorbance value: 0.421
24 sera; Serum No. 6604
  absorbance value: 0.400
24 sera; Serum No. 6631
  absorbance value: 0.285
24 sera; Serum No. 6650
  absorbance value: 0.034
24 sera; Serum No. 6661
  absorbance value: 0.160
24 sera; Serum No. 6665
  absorbance value: 0.053
24 sera; Serum No. 6674
  absorbance value: 0.258
24 sera; Serum No. 6683
  absorbance value: 0.489
24 sera; Serum No. 6698
  absorbance value: 0.022
24 sera; Serum No. 6877
  absorbance value: 0.008
